Source: US7049415B2 (priority 2002, dated 2006)

Test system: HIV-1
Details: cMAGI/MAGI cells; for IC50: 50% reduction in infectious virus titer; for IC90: 90% reduction in infectious virus titer
Source text: The number of stained nuclei can thus be interpreted as equal to the number of infectious virions in the challenge inoculum if there is only one round of infection prior to staining.

Substance | IC50 [µg/mL] | IC90 [µg/mL]
Pegylated T20 with PEG10K-butanoaldehyde [Example 2] | 0.266 | 2.536
Pegylated T20 with mPEG10k-propionaldehyde [Example 3] | 0.261 | 3.074
